Experimental data as given in patent publication US20210199640A1, “Methods of Normalizing Aberrant Glycolytic Metabolism in Cancer Cells” (The Board of Trustees of the Leland Stanford Junior …, priority 2019, published 2021).

System: PKM2
Assay: [18F]DASA-23 cellular uptake as measure of PKM2 expression in U87 GBM cells
Format: cell-based, Human
Procedure: [18F]DASA-23 can be used to detect changes in GBM metabolism in response to TMZ and TTFields therapies. In one experiment, Human U87 GBM cells were subjected to 200 kHz TTFields, the IC50 of TMZ, or vehicle for three or six days (n≥3/condition), followed by evaluation of [18F]DASA-23 uptake (e.g., FIGS. 2 and 6). Immunofluorescence for PKM2 was performed to confirm the [18F]DASA-23 uptake results. (e.g., FIG. 9). Western blot analysis was performed to determine the effect of TMZ and TTFields exposure on the expression of PKM2. 2-way ANOVA with multiple comparisons was performed. (e.g., FIG. 8). Data are reported as mean±SD.
The ability of [18F]DASA-23 to detect changes in metabolism in response to TMZ and TTFields therapies, in cell culture and an orthotopic murine model of human GBM (FIG. 6) was evaluated. There was a significant interaction between the treatment (vehicle, TMZ, or TTFields) and treatment duration (3 or 6 days) on PKM2 expression as measured by cellular uptake of [18F]DASA-23 (p=0.005, 2-way ANOVA) (FIG. 6).

[1] = U87 cells, after exposure to TTFields, over 60 minutes, FIG. 7

Row | SMILES | reduction of PKM2 expression (U87 glioblastoma cells, over a 30 minute period, after treatment with chemotherapy (TMZ), FIG. 6) | reduction of [18F]DASA-23 uptake (U87 cells, after exposure to TTFields, over 30 minutes, FIG. 7) | reduction of [18F]DASA-23 retention [1] | reduction of [18F]DASA-23 uptake [1]
1 | Cn1nnc2c(C(N)=O)ncn2c1=O [TMZ, Temozolomide] | at least 10% |  |  | 
2 | COc1ccc(S(=O)(=O)N2CCN(S(=O)(=O)c3c(F)cccc3[18F])CC2)cc1 [[18F]DASA-23, 1-((2-fluoro-6-[18F]fluorophenyl)sulfonyl)-4-((4-methoxyphenyl)sulfonyl)piperazine] |  | at least 5% | at least 20% | at least 10%
